One assay has as its system effects of serotonin. As to the kind of experiment: Antagonistic activity on the effects of serotonin in the gastric lesion test (lesions induced by compound 48/80). The format is in vivo, rats of a Wistar inbred strain. Particulars: for ED50: Rattus norvegicus, po, read-out: gastric lesion test ED50. As for the experimental part: Antagonistic activity on the effects of serotonin in the gastric lesion test.
The shock, followed by dead, can be avoided if the rats are pretreated with a classical H 1 antagonist.
Male rats of a Wistar inbred strain, weighing 220-250 g, were starved overnight, water being available ad libitum. The test compounds were administered orally as a solution or as a suspension in aqueous medium. A control rat and a "blank" rat received the test compound. One hour later 5-[4-(diphenylmethyl)1-piperazinylmethyl]-1-methyl-1H-benzimidazole-2-methanol was administered subcutaneously to all rats at the dose of 2.5 mg/kg. […] Four hours after the intravenous injection of compound 48/80, the rats were decapitated and the stomachs were removed. Subsequently the stomachs were inspected for distension and contents (blood, fluid, food) and thoroughly rinsed. The macroscopic lesions were scored from 0 to +++, 0 corresponding to complete absence of visible lesions and the highest score corresponding to reddish rough patches covering more than half the glandular area.
The second column of tables 1-4 show for a number of compounds of formula (I) the doses (in mg/kg body weight) at which the distension of the stomach as well as the lesions in the glandular area of the stomach are completely absent in 50% of the test rats (ED50 -value).

Assay [1] concerns compound 48/80-induced lethality. As to the kind of experiment: Protection of rats from compound 48/80-induced lethality. Particulars: protection of 50% of animals, survival after 4 hours; for ED50: Rattus norvegicus, 4 h, read-out: Compound 48/80 lethality test in rats ED50, s.c. or p.o. 1 h before compound 48/80 0.5 mg/kg i.v. The assay is classed as in vivo, rats of an inbred Wistar strain. In outline: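 Male inbred Wistar rats (240-260 g), starved overnight, dosed subcutaneously or orally with compound or 0.9% NaCl before compound 48/80 challenge. Survival at 4 hours counted as protection. ED50 in mg/kg is the dose protecting 50% of animals from lethality.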

[2] abbreviates: compound 48/80 1 mg/kg i.v., distension and lesions of stomach completely absent in 50% of rats.

Like-named read-outs stand apart in the source and are kept apart here.

For the compound `Cc1nc2n(c(=O)c1CCN1CCC(Cc3nc4ccccc4n3Cc3ccco3)CC1)CCCC2` [Compound 226], the ED50 in the assay with effects of serotonin is 0.04 mg/kg; in assay [1], 0.08 mg/kg.
Consider `Fc1ccc(Cn2c(CC3CCN(CCNc4ncccn4)CC3)nc3ccccc32)cc1` [Compound 374], for which the ED50 (in the assay on effects of serotonin (setting [2]); in assay [1]) was 0.02 mg/kg each time.
For the compound `Oc1ccc(CCN2CCC(Cc3nc4ccc(O)cc4n3Cc3ccc(F)cc3)CC2)cc1` [Compound 505, 1-[(4-fluorophenyl)methyl]-2-[[1-[2-(4-hydroxyphenyl)ethyl]-4-piperidinyl]-methyl]-1H-benzimidazol-6-ol], the ED50 (in the assay with effects of serotonin; in assay [1]) was 0.04 mg/kg in each case.
Consider `Cn1cnc([N+](=O)[O-])c1N1CCC(N2CCC(Cc3nc4ccccc4n3Cc3ccc(F)cc3)CC2)CC1` [Compound 380, 4-[[1-[(4-fluorophenyl)methyl]-1H-benzimidazol-2-yl]methyl]-1'-(1-methyl-4-nitro-1H-imidazol-5-yl)-[1,4'-bipiperidine]], for which the figures for the ED50 (with effects of serotonin (setting [2]); in assay [1]) were 0.63 mg/kg and 0.31 mg/kg, respectively.
`c1csc(Cn2c(CC3CCN(CCNc4nc5cnccc5[nH]4)CC3)nc3ccccc32)c1` [Compound 416, N-[2-[4-[[1-(2-thienylmethyl)-1H-benzimidazol-2-yl]methyl]-1-piperidinyl]ethyl]-1H-imidazo[4,5-c]pyridin-2-amine]: the ED50 (with effects of serotonin; in assay [1]) was 0.04 mg/kg throughout.
For the compound `O=[N+]([O-])c1cc[n+]([O-])cc1NCCN1CCC(Cc2nc3ccccc3n2Cc2ccc(F)cc2)CC1` [Compound 379, N-[2-[4-[[1-[(4-fluorophenyl)methyl]-1H-benzimidazol-2-yl]methyl]-1-piperidinyl]ethyl]-4-nitro-3-pyridinamine, 1-oxide], the ED50 with effects of serotonin (setting [2]) was found to be 0.31 mg/kg; in assay [1] it was 0.08 mg/kg.
Consider `Fc1ccc(Cn2c(CC3CCN(CCc4cccs4)CC3)nc3ccccc32)cc1` [Compound 118, 1-[(4-fluorophenyl)methyl]-2-[[1-[2-(2-thienyl)ethyl]-4-piperidinyl]-methyl]-1H-benzimidazole], for which the ED50 was found to be 0.63 mg/kg with effects of serotonin (setting [2]) and 0.04 mg/kg in assay [1].
`O=C(NCCN1CCC(Cc2nc3ccccc3n2Cc2ccc(F)cc2)CC1)c1ccsc1` [Compound 431]: the results for the ED50 (in the assay with effects of serotonin (setting [2]); in assay [1]) were 0.005 mg/kg and 0.04 mg/kg, respectively.
As to `Fc1ccc(Cn2c(CC3CCN(CCNc4ncc[nH]4)CC3)nc3ccccc32)cc1` [Compound 453, 4-[[1-[(4-fluorophenyl)methyl]-1H-benzimidazol-2-yl]methyl]-N-(1H-imidazol-2-yl)-1-piperidineethanamine], the ED50 was found to be 0.02 mg/kg in the assay with effects of serotonin (setting [2]) and 0.04 mg/kg in assay [1].
On the same counts, the results for `COc1ccc(CCN2CCC(Cc3nc4ccccc4n3Cc3ccco3)CC2)cc1` [Compound 229] are 0.63 mg/kg and 0.04 mg/kg.
In the case of `O=C(CCCN1CCC(Cc2nc3cccnc3n2Cc2ccc(F)cc2)CC1)c1ccc(F)cc1` [Compound 228], in the assay with effects of serotonin (oral, compound 48/80 1 mg/kg i.v., distension and lesions of stomach completely absent in 50% of rats, 1 mg/kg), the “gastric lesion test ED50” value came to 0.01 mg/kg body weight. The “Compound 48/80 lethality test in rats ED50” value in assay [1] (s.c. or p.o. 1 h before compound 48/80 0.5 mg/kg i.v., 0.5 mg/kg, 240 min) is on record as 0.04 mg/kg body weight.
Consider `c1ccc(Cn2c(CC3CCN(CCNc4nccs4)CC3)nc3cccnc32)cc1` [Compound 362], for which the ED50 with effects of serotonin (setting [2]) was 0.63 mg/kg; in assay [1] it was 0.08 mg/kg.
With `Oc1nc2cncnc2n1CCN1CCC(Cc2nc3ccccc3n2Cc2ccc(F)cc2)CC1` [Compound 502, 9-[2-[4-[[1-[(4-fluorophenyl)methyl]-1H-benzimidazol-2-yl]methyl]-1-piperidinyl]ethyl]-9H-purin-8-ol], the ED50 with effects of serotonin (setting [2]) came to 0.16 mg/kg; in assay [1] it was 0.08 mg/kg.
With `Nc1ccccc1C(=O)NCCN1CCC(Cc2nc3ccccc3n2Cc2cccs2)CC1` [Compound 478, 2-amino-N-[2-[4-[[1-(2-thienylmethyl)-1H-benzimidazol-2-yl]methyl]-1-piperidinyl]ethyl]benzamide], the ED50 in the assay with effects of serotonin was 0.04 mg/kg; in assay [1], 0.02 mg/kg.
As to `CCNC(=O)NCCN1CCC(Cc2nc3ccccc3n2Cc2ccc(F)cc2)CC1` [Compound 430, N-ethyl-N'-[2-[4-[[1-[(4-fluorophenyl)methyl]-1H-benzimidazol-2-yl]methyl]-1-piperidinyl]ethyl]urea], the ED50 in the assay with effects of serotonin (setting [2]) stood at 0.005 mg/kg; in assay [1], 0.01 mg/kg.
Consider `Fc1ccc(Cn2c(CC3CCN(CCNc4ccccn4)CC3)nc3ccccc32)cc1` [Compound 499], for which the ED50 came out at 0.01 mg/kg in the assay on effects of serotonin (setting [2]) and 0.04 mg/kg in assay [1].
Take `O=c1[nH]c2ccccc2c(=O)n1CCN1CCC(Cc2nc3ccccc3n2Cc2cscn2)CC1` [Compound 187]: the values for the ED50 (in the assay on effects of serotonin (setting [2]); in assay [1]) were 0.31 mg/kg and 0.04 mg/kg, respectively.
In the case of `Fc1ccc(Cn2c(CC3CCN(CCn4c(S)nc5cncnc54)CC3)nc3ccccc32)cc1` [Compound 495, 9-[2-[4-[[1-[(4-fluorophenyl)methyl]-1H-benzimidazol-2-yl]methyl]-1-piperidinyl]ethyl]-9H-purine-8-thiol], the figures for the ED50 (with effects of serotonin (setting [2]); in assay [1]) were 0.16 mg/kg and 0.04 mg/kg, respectively.
With `c1coc(Cn2c(CC3CCN(CCNc4nc5cnccc5[nH]4)CC3)nc3ccccc32)c1` [Compound 418, N-[2-[4-[[1-(2-furanylmethyl)-1H-benzimidazol-2-yl]methyl]-1-piperidinyl]ethyl]-1H-imidazo[4,5-c]pyridin-2-amine], the ED50 in the assay on effects of serotonin stood at 0.04 mg/kg; in assay [1] it was 0.02 mg/kg.
Take `CC(C)NC(=O)CCN1CCC(Cc2nc3ccccc3n2Cc2ccc(F)cc2)CC1` [Compound 145, 4-[[1-[(4-fluorophenyl)methyl]-1H-benzimidazol-2-yl]methyl]-N-(1-methylethyl)-1-piperidinepropanamide]: the ED50 in the assay with effects of serotonin (setting [2]) turned out to be 0.16 mg/kg; in assay [1] it was 0.02 mg/kg.
Consider `Fc1ccc(Cn2c(CC3CCN(Cc4cn5ccccc5n4)CC3)nc3ccccc32)cc1` [Compound 184], for which the ED50 in the assay with effects of serotonin (setting [2]) amounted to 0.63 mg/kg; in assay [1], 0.02 mg/kg.
In the same order, the values of `COc1ccc(CCN2CCC(Cc3nc4ccccc4n3Cc3ccsc3)CC2)cc1` [Compound 523, 2-[[1-[2-(4-methoxyphenyl)ethyl]-4-piperidinyl]methyl]-1-(3-thienylmethyl)-1H-benzimidazole] are 0.31 mg/kg and 0.04 mg/kg.
`O=C(NCCN1CCC(Cc2nc3cccnc3n2Cc2ccc(F)cc2)CC1)c1ccoc1` [Compound 432]: the results for the ED50 (in the assay on effects of serotonin (setting [2]); in assay [1]) were 0.31 mg/kg and 0.04 mg/kg, respectively.
Turning to `CC(=O)N(CCN1CCC(Cc2nc3ccccc3n2Cc2ccc(F)cc2)CC1)c1ncccn1` [Compound 510, N-[2-[4-[[1-[(4-fluorophenyl)methyl]-1H-benzimidazol-2-yl]methyl]-1-piperidinyl]ethyl]-N-(2-pyrimidinyl)acetamide], the ED50 in the assay on effects of serotonin (setting [2]) was found to be 0.16 mg/kg; in assay [1], 0.02 mg/kg.
Regarding `c1cnc(NCCN2CCC(Cc3nc4cccnc4n3Cc3cccs3)CC2)nc1` [Compound 342], the ED50 in the assay with effects of serotonin (setting [2]) was found to be 0.16 mg/kg; in assay [1], 0.02 mg/kg.
For `Cc1cc(Cl)nc(NCCN2CCC(Cc3nc4ccccc4n3Cc3ccc(F)cc3)CC2)n1` [Compound 382, 4-chloro-N-[2-[4-[[1-[(4-fluorophenyl)methyl]-1H-benzimidazol-2-yl]methyl]-1-piperidinyl]ethyl]-6-methyl-2-pyrimidinamine], the ED50 is 0.63 mg/kg in the assay with effects of serotonin (setting [2]) and 0.08 mg/kg in assay [1].
For the compound `Fc1ccc(Cn2c(CC3CCN(CCOc4ncccn4)CC3)nc3ccccc32)cc1` [Compound 391, 1-[(4-fluorophenyl)methyl]-2-[[1-[2-(2-pyrimidinyloxy)ethyl]-4-piperidinyl]methyl]-1H-benzimidazole], the ED50 (in the assay on effects of serotonin (setting [2]); in assay [1]) was 0.02 mg/kg throughout.
For the compound `Fc1ccc(Cn2c(CC3CCN(CCN4CCOCC4)CC3)nc3cccnc32)cc1` [Compound 124], the ED50 amounted to 0.31 mg/kg in the assay on effects of serotonin (setting [2]) and 0.04 mg/kg in assay [1].
Regarding `O=c1cc[nH]c(=O)n1CCN1CCC(Cc2nc3ccccc3n2Cc2ccc(F)cc2)CC1` [Compound 164], the ED50 (with effects of serotonin (setting [2]); in assay [1]) was 0.02 mg/kg in each case.
In the case of `Cc1nc2ccccn2c(=O)c1CCN1CCC(Cc2nc3ccccc3n2Cc2ccco2)CC1` [Compound 218], the ED50 (in the assay with effects of serotonin; in assay [1]) was 0.04 mg/kg throughout.
For `Fc1ccc(Cn2c(CC3CCN(C4CCCCC4)CC3)nc3ccccc32)cc1` [Compound 99], the values for the ED50 (with effects of serotonin (setting [2]); in assay [1]) were 0.31 mg/kg and 0.04 mg/kg, respectively.
With `Fc1ccc(Cn2c(CC3CCN(CCNc4nccs4)CC3)nc3cccnc32)cc1` [Compound 357], the ED50 in the assay on effects of serotonin (setting [2]) came out at 0.63 mg/kg; in assay [1], 0.02 mg/kg.
On the same counts, the results for `Cn1c(O)nc2c(NCCN3CCC(Cc4nc5ccccc5n4Cc4ccc(F)cc4)CC3)ncnc21` [Compound 371] are 0.63 mg/kg and 0.16 mg/kg.
`Cc1nc2ccccn2c(=O)c1CCN1CCC(Cc2nc3ccccc3n2Cc2ccc(F)cc2)CC1` [Compound 214]: the figures for the ED50 (in the assay with effects of serotonin; in assay [1]) were 0.04 mg/kg and 0.08 mg/kg, respectively.

For the origin of these results see US4839374A, “4-((Bicyclic heterocyclyl)-methyl and -hetero)-piperidines” (Janssen Pharmaceutica, N.V., priority 1987, dated 1989).
